According to patent US11643421B2, “Process for the preparation of tricyclic PI3K inhibitor compounds and methods for using the same for the treatment of cancer” (priority 2015, dated 2023):

Experiment: MALDI imaging of brain distribution, U87 orthotopic model
Type: in vivo, female nude mice
Conditions: re-analysis of previously obtained images (Salphati et al. 2014)
Protocol: Mice were euthanized at 1 and 6 hours post-dose via exsanguination by perfusion under anesthesia. Brains were excised, flash frozen in liquid N2 and stored in a −80° C. freezer until analyzed. Fresh frozen tissue sections were obtained on a cryomicrotome (Leica CM3050S, Buffalo Grove, Ill.) at 12 μm thickness and thaw-mounted onto indium tin oxide coated glass slides (Bruker Daltonics, Billerica, Mass.). Tissue sections were an analyzed by imaging MALDI MS, providing signal intensities (and not absolute quantitation), followed by cresyl violet staining for histological interrogation.
For MALDI MAS analysis, a 40 mg/mL solution of 2,5-dihydroxybenzoic acid (Sigma-Aldrich, St. Louis, Mo.) was prepared in methanol:water (70:30 v/v). […] Matrix solution was homogenously spray-coated onto the tissue using a HTX TM-Sprayer (HTX technologies. Chapel Hill, N.C.). Matrix-coated tissue sections were transferred to the MALDI mass spectrometer (SolariX 7T FT-ICR, Bruker Daltonics, Bremen, Germany) for imaging analysis. […] Laser intensity and number of shots were optimized for sensitivity of the parent drug (1200 shots) with ion detection collected over the mass range of m/z 150-3000.
Following completion of the imaging experiments, matrix coaling was removed by rinsing the glass slide in 100% methanol for 30 seconds or until the entire matrix was visibly removed. […] Microscope images were obtained on an Olympus BX51 (Tokyo, Japan) at 10× magnification and stitched using MicroSuite Analytical v3.0 software (Olympus, Tokyo, Japan). Subsequently, stained images were co-registered to the optical images in FlexImaging for visualization and annotation of tumor and non-tumor regions for the drug images.
To assess drug distribution, imaging MALDI MS data from U87 and GS2 tumor models were co-registered to the cresyl violet stained microscope images in FlexImaging Regions of interest (ROIs) that were selected based on the anatomical features defined in the histological image including tumor and non-tumor regions. Drug intensity for each pixel within the defined ROI was extracted and exported. […] Histogram plots were created in GraphPad Prism 5 to visualize the distribution of pixel intensity frequencies.

distribution of signal intensities in the U87 tumor (MALDI): concentrated in the low intensity bins
Structure (SMILES): CS(=O)(=O)N1CCN(Cc2cc3nc(-c4cccc5[nH]ncc45)nc(N4CCOCC4)c3s2)CC1 [pictilisib, reference compound]
